Activity calls are given as the source filed them.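 Rule for the calls: active = mean IC50 below 20 µM; inactive = the rest.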
Target: Hexokinase-1 (Homo sapiens) (UniProt P19367)
Test: HK1 enzyme inhibition by HKDC1 hits, SAR follow-up, selectivity assay for HKDC1 inhibitor project, biochemical, set 2, resazurin fluorescence coupled readout (AID 588356)
Settings: G6PDH/diaphorase resazurin fluorescence

Sequence of Hexokinase-1 (Homo sapiens) (P19367 whole entry, looked up): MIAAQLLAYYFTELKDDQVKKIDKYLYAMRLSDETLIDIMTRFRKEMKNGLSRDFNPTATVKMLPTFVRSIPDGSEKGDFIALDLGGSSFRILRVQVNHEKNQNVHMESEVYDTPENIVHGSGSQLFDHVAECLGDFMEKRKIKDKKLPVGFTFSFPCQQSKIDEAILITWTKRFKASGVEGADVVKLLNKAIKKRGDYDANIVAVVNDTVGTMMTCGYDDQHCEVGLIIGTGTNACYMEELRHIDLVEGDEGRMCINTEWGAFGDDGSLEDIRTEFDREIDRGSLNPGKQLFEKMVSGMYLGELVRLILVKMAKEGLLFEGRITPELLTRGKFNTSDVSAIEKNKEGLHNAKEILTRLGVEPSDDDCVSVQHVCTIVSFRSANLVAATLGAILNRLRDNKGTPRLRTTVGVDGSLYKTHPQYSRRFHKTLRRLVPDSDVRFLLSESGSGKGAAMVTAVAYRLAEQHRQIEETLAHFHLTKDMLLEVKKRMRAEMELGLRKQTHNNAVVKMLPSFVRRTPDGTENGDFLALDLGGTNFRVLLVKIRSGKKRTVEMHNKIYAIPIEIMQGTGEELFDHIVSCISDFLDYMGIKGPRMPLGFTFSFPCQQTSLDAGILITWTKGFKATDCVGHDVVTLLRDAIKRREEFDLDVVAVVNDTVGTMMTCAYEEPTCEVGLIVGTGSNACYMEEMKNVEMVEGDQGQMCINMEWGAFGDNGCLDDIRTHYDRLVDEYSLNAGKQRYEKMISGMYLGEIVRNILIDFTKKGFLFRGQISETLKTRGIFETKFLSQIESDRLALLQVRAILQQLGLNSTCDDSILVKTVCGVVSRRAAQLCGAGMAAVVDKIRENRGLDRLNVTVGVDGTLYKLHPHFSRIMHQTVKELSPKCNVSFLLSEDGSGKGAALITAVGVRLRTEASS

COc1cc2c(cc1OC)-c1cc(N3CCc4ccccc4C3)nc(=O)n1CC2
IC50: inactive

Reference: PubChem BioAssay AID588356 (Sanford-Burnham Center for Chemical Genomics, 2011)
